From patent US20240262806A1, “INHIBITORS OF NLRP3” (PTC THERAPEUTICS, INC., priority 2021, published 2024) come the findings set out here.

One assay relates to NLRP3 inflammasome. In words: IL-1β Secretion Assay (NLRP3-dependent IL-1β secretion in PMA-differentiated THP-1 cells, nigericin activation, HTRF). It is filed as cell-based. To be noted: Homo sapiens, THP-1, THP-1 cells, 100 ng/mL PMA 24 h, compound 20 h, 2.5 μM Nigericin 3 h; read-out: IC50 IL-1β Inhibition. Here is the method: Cells were washed 1× with 100 ul PBS and replaced with fresh RPMI+5% FBS. Compounds were serial diluted in DMSO with 3 fold dilution for a total of 7 concentrations.
Compounds, once produced and prepared according to the present invention, can be assessed in variety of assays to characterize their activities. […] IC50 values of IL1β inhibition were calculated from the plot of percentage of inhibition versus the inhibitor concentration by a logistics fit. TABLE I depict examples of compounds according to generic Formulae I. Data which is <1 nM is listed as *****; data 1-10 nM is listed as ****; data 10-100 nM is listed as ***, data 100-300 nM is listed as **, data >300 nM is listed as *.
Background: In TR-FRET formats the signal depends on donor and acceptor labels being close together.
The term IC50 denotes the concentration needed to halve the response being measured. As to `Cc1cnc(-c2nnc(N[C@@H]3CCCN(C)C3)c3cnccc23)c(O)c1` [Compound I-195], the IC50 fell in the range of 1 to 10 nM.

Consider `CN1CCC[C@@H](Nc2nnc(-c3ccc(C4CC4)cc3O)c3ccncc23)C1` [Compound I-89], for which the half-inhibitory concentration (IC50) was less than 1 nM.

As for `CN1CCC[C@@H](Nc2nnc(-c3cccc(C4CC4)c3O)c3ccncc23)C1` [Compound I-77], the IC50 was less than 1 nM.

With `CN1CCC[C@@H](Nc2nnc(-c3ccc(C(F)(F)F)cc3-c3cn[nH]c3)c3ccncc23)C1` [Compound I-193], the IC50 lay within 10 to 100 nM.

`CN1CCC[C@@H](Nc2nnc(-c3ccc(N4CCCC4)cc3O)c3ccccc23)C1` [Compound I-93]: the IC50 lay within 1 to 10 nM.

Regarding `CCN1CCC[C@@H](Nc2nnc(-c3c(O)cc(OC)cc3F)c3cc(C)nn23)C1` [Compound I-555], the IC50 is less than 1 nM.

In the case of `Cc1cc(O)c(-c2nnc(N[C@@H]3CCCN(CC(F)F)C3)n3cccc23)c(F)c1` [Compound I-511], the half-maximal inhibitory concentration (IC50) was in the range of 1 to 10 nM.

With `CCN1CCC[C@@H](Nc2nnc(-c3ccc(Br)cc3O)c3cccn23)C1` [Compound I-564], the IC50 was less than 1 nM.

Take `CCOc1cc(O)c(-c2nnc(N[C@H]3C[C@@](C)(O)C3)n3cccc23)c(F)c1` [Compound I-629]: the IC50 was in the range of 10 to 100 nM.

In the case of `CN1CCC[C@@H](Nc2nnc(-c3ccc(C#N)cc3OC(F)F)c3ccncc23)C1` [Compound I-167], the half-inhibitory concentration (IC50) lay in the range of 10 to 100 nM.

`CN1CCC[C@@H](Nc2nnc(-c3ccc(Cl)cc3O)c3cnccc23)C1` [Compound I-59]: the IC50 was less than 1 nM.

Take `CCN1CCC[C@@H](Nc2nnc(-c3ccc(OC)cc3O)c3cccn23)C1` [Compound I-377]: the IC50 fell in the range of 1 to 10 nM.

Regarding `Oc1cc(C2CC2)ccc1-c1nnc(N[C@@H]2CCCN(C3CCOCC3)C2)n2cccc12` [Compound I-340], the half-maximal inhibitory concentration (IC50) was 1 to 10 nM.

For `CNc1cc(C(F)(F)F)ccc1-c1nnc(N[C@@H]2CCCN(C)C2)c2ccccc12` [Compound I-125], the half-inhibitory concentration (IC50) is 1 to 10 nM.

`Oc1cc(C(F)(F)F)ccc1-c1nnc(N[C@@H]2CCCN(C3CC(CC(F)F)C3)C2)c2cnccc12` (stereo partly shown) [Compound I-257]: the half-maximal inhibitory concentration (IC50) was 1 to 10 nM.

Take `COc1ccc(-c2nnc(N[C@H]3CCCN(C)C3)c3cnccc23)c(C(C)C)c1` [Compound I-296]: the IC50 was in the range of 1 to 10 nM.

For `CN1CCC[C@@H](Nc2nnc(-c3ccc(OC(F)(F)F)cc3O)c3ccncc23)C1` [Compound I-102], the 50% inhibitory concentration (IC50) was less than 1 nM.

Consider `Cc1cc2c(-c3c(O)cc(C4CC4)cc3F)nnc(N[C@@H]3CCCN(C)C3)n2n1` [Compound I-429], for which the 50% inhibitory concentration (IC50) was less than 1 nM.

For the compound `Cc1cc2c(-c3ccc(C(F)(F)F)cc3O)nnc(N[C@@H]3CCCN(C)C3)n2n1` [Compound I-329, (R)-2-(2-methyl-7-((1-methylpiperidin-3-yl)amino)pyrazolo[1,5-d][1,2,4]triazin-4-yl)-5-(trifluoromethyl)phenol], the concentration for half-maximal inhibition (IC50) was less than 1 nM.

With `OCCN1CCC[C@@H](Nc2nnc(-c3ccc(C(F)(F)F)cc3OC(F)F)c3cccn23)C1` [Compound I-325, 2-[(3R)-3-[[1-[2-(Difluoromethoxy)-4-(trifluoromethyl)phenyl]pyrrolo[1,2-d][1,2,4]triazin-4-yl]amino]-1-piperidyl]ethanol], the IC50 was in the range of 1 to 10 nM.

`CCN1CCC[C@@H](Nc2nnc(-c3ccc(Br)cc3O)c3ccnn23)C1` [Compound I-453]: the IC50 was less than 1 nM.

Regarding `CN1CCC[C@@H](Nc2nnc(-c3ccc(C(F)(F)F)cc3C(F)F)c3ccncc23)C1` [Compound I-138], the IC50 was in the range of 1 to 10 nM.

As for `FC(F)Oc1cc(C(F)(F)F)ccc1-c1nnc(N[C@@H]2CCCNC2)c2ccncc12` [Compound I-231], the IC50 lay within 10 to 100 nM.

Consider `Cc1cc(Cl)cc(C)c1-c1nnc(N[C@@H]2CCCN(C)C2)c2cnccc12` [Compound I-218], for which the IC50 is less than 1 nM.

With `CN1CCC[C@@H](Nc2nnc(-c3ccc(C4=CCOCC4)cc3O)c3ccccc23)C1` [Compound I-56], the IC50 fell in the range of 10 to 100 nM.

With `CCN1CCC[C@@H](Nc2nnc(-c3c(C)cc(C(F)(F)F)cc3O)c3cccn23)C1` [Compound I-606], the 50% inhibitory concentration (IC50) was less than 1 nM.

With `Cc1ccc(-c2nnc(N[C@@H]3CCCN(CC(C)(C)O)C3)n3cccc23)c(O)c1` [Compound I-367], the IC50 was in the range of 10 to 100 nM.

Take `CN1CCC[C@@H](Nc2nnc(-c3ccc(C(F)(F)F)cc3OC(F)F)c3cccn23)C1` [Compound I-322, 1-[2-(Difluoromethoxy)-4-(trifluoromethyl)phenyl]-N-[(3R)-1-methyl-3-piperidyl]pyrrolo[1,2-d][1,2,4]triazin-4-amine]: the IC50 is less than 1 nM.

In the case of `CC#Cc1ccc(-c2nnc(N[C@@H]3CCCN(C)C3)c3ccccc23)c(O)c1` [Compound I-227], the IC50 is less than 1 nM.

As to `C[C@]1(O)C[C@@H](Nc2nnc(-c3ccc(Br)cc3O)c3cncn23)C1` [Compound I-627], the IC50 fell in the range of 1 to 10 nM.

With `CN1CCCC[C@@H](Nc2nnc(-c3ccc(C(F)(F)F)cc3O)c3ccncc23)C1` [Compound I-187], the IC50 is less than 1 nM.

Regarding `CN1CCC[C@@H](Nc2nnc(-c3ccc(Cl)cc3O)c3ccccc23)C1` [Compound I-13], the half-inhibitory concentration (IC50) was less than 1 nM.

Consider `CCN1CCC[C@@H](Nc2nnc(-c3ccc(C(F)(F)F)cc3OC(F)F)c3cncn23)C1` [Compound I-574, (R)-1-(2-(Difluoromethoxy)-4-(trifluoromethyl)phenyl)-N-(1-ethylpiperidin-3-yl)imidazo[1,5-d][1,2,4]triazin-4-amine], for which the half-inhibitory concentration (IC50) is less than 1 nM.

For the compound `Cc1nc(-c2ccc(-c3nnc(N[C@@H]4CCCN(C)C4)c4ccccc34)c(O)c2)ns1` [Compound I-38], the IC50 was less than 1 nM.

On to `Cc1cc2c(-c3ccc(C4CC4)cc3O)nnc(N[C@@H]3CCCN(C)C3)n2n1` [Compound I-327], for which the 50% inhibitory concentration (IC50) was 1 to 10 nM.

Take `CN1C[C@H](F)C[C@@H](Nc2nnc(-c3ccc(C(F)(F)F)cc3O)c3cccn23)C1` [Compound I-410]: the IC50 fell in the range of 1 to 10 nM.

For the compound `COc1cc(C(F)(F)F)ccc1-c1nnc(N2CCNCC2)c2ccncc12` [Compound I-153], the 50% inhibitory concentration (IC50) lay in the range of 10 to 100 nM.

Regarding `Oc1cc(C(F)(F)F)ccc1-c1nnc(N[C@@H]2CCCN(CCOC(F)F)C2)c2cnccc12` [Compound I-293], the IC50 is less than 1 nM.

With `CN1CCC(CNc2nnc(-c3ccc(C(F)(F)F)cc3O)c3ccncc23)CC1` [Compound I-302], the IC50 was in the range of 1 to 10 nM.

For the compound `CN1CCC[C@@H](Nc2nnc(-c3cccc(F)c3O)c3ccccc23)C1` [Compound I-28], the IC50 lay in the range of 10 to 100 nM.

On to `CCN1C[C@H](O)C[C@@H](Nc2nnc(-c3ccc(C(F)(F)F)cc3OC(F)F)c3c(F)ccn23)C1` [Compound I-603], for which the 50% inhibitory concentration (IC50) was in the range of 100 to 300 nM.

For the compound `Cc1ccc(-c2nnc(N[C@@H]3CCCN(C)C3)c3ncccc23)c(O)c1` [Compound I-86], the IC50 is less than 1 nM.

For `Cc1cc(C(F)(F)F)cc(O)c1-c1nnc(N[C@@H]2CCCN(C)C2)n2cccc12` [Compound I-431], the IC50 is less than 1 nM.

In the case of `CN1CCC[C@@H](Nc2nnc(-c3ccc(C(F)(F)F)cc3OC3COC3)c3cnccc23)C1` [Compound I-188], the 50% inhibitory concentration (IC50) was 10 to 100 nM.

For `Oc1cc(C(F)(F)F)ccc1-c1nnc(NCC2CCN2)c2ccccc12` (stereo not shown) [Compound I-150], the half-inhibitory concentration (IC50) lay within 10 to 100 nM.

As for `C[C@H](O)CNc1nnc(-c2ccc(C(F)(F)F)cc2OC(F)F)c2cccn12` [Compound I-389], the IC50 was in the range of 1 to 10 nM.

Turning to `CCN1CCC[C@H](Nc2nnc(-c3c(O)cc(C4CC4)cc3F)c3cc(C)nn23)C1` [Compound I-554], the IC50 was less than 1 nM.

On to `Cc1cc2c(-c3c(O)cc(Cl)cc3F)nnc(N[C@@H]3CCCN(C)C3)n2n1` [Compound I-455], for which the IC50 was less than 1 nM.

In the case of `OCCN1CCC[C@@H](Nc2nnc(-c3ccc(C(F)(F)F)cc3O)c3cccn23)C1` [Compound I-353], the 50% inhibitory concentration (IC50) lay within 1 to 10 nM.

In the case of `CN1C[C@H](F)C[C@@H](Nc2nnc(-c3ccc(C(F)(F)F)cc3O)c3ccccc23)C1` [Compound I-151], the IC50 is less than 1 nM.

Take `CCN1CCC[C@@H](Nc2nnc(-c3ccc(C(F)(F)F)cc3OC(F)F)c3cc(C)nn23)C1` [Compound I-556]: the half-inhibitory concentration (IC50) lay within 1 to 10 nM.

On to `Cc1cc(O)c(-c2nnc(N[C@@H]3C[C@@H](F)CN(C)C3)n3cccc23)c(F)c1` [Compound I-444], for which the IC50 was less than 1 nM.

With `CN1CCC[C@@H](Nc2nnc(-c3ccc(C(F)(F)F)cc3-c3ccn(C)n3)c3ccncc23)C1` [Compound I-232], the IC50 was in the range of 10 to 100 nM.

`COc1ccc(-c2nnc(N[C@@H]3CCCN(C)C3)n3cccc23)c(OC(F)F)c1` [Compound I-471]: the half-inhibitory concentration (IC50) lay in the range of 1 to 10 nM.

For `CN1CCC[C@@H](Nc2nnc(-c3ccc(C(F)(F)F)cc3F)c3ccccc23)C1` [Compound I-127], the IC50 lay in the range of 1 to 10 nM.

Regarding `Cc1cc2c(-c3c(C)cc(C(F)(F)F)cc3O)nnc(N[C@@H]3CCCN(C)C3)n2n1` [Compound I-560], the IC50 was 1 to 10 nM.

Regarding `Oc1cc(C(F)(F)F)ccc1-c1nnc(N[C@H]2CNCCOC2)c2cnccc12` [Compound I-252], the half-inhibitory concentration (IC50) lay in the range of 10 to 100 nM.

As to `COc1cccc(-c2nnc(N[C@@H]3CCCN(C)C3)c3cnccc23)c1O` [Compound I-73], the 50% inhibitory concentration (IC50) is less than 1 nM.

As for `COCOc1cc(-c2ncco2)ccc1-c1nnc(N[C@H]2CCCN(C)C2)c2cnccc12` [Compound I-173], the IC50 was 10 to 100 nM.

Turning to `OCCN1CCC[C@@H](Nc2nnc(-c3ccc(C(F)(F)F)cc3OC(F)F)c3cnccc23)C1` [Compound I-238], the IC50 was in the range of 10 to 100 nM.

The assay is the same for the next values; noted with them: THP-1 cells, 100 ng/mL PMA 24 h, compound 20 h, 2.5 μM Nigericin 3 h; read-out: IC50 IL-1β Inhibition.
Regarding `Cc1cc2c(-c3ccc(C4CC4)cc3OC(F)(F)F)nnc(N[C@@H]3CCCN(C)C3)n2n1` [Compound I-418], the IC50 lay within 1 to 10 nM.
